These are literature values, as cited in patent US20160199317A1, “ESTRADIOL CONTAINING TRANSDERMAL DRUG DELIVERY SYSTEMS AND COMPOSITIONS” (3M INNOVATIVE PROPERTIES COMPANY, priority 2013, published 2016).

The conditions of this data set: background statement.

Consider `C[C@]12CC[C@@H]3c4ccc(O)cc4CC[C@H]3[C@@H]1CC[C@@H]2O` [estradiol, estra-1,3,5(10)-triene-3,17β-diol], for which the half-life entry is “about one”.
